Experiment [1] concerns P. falciparum W2. The class given is cell-based. As to conditions: W2 isolate, pH 7.0, 66 hour incubation. From the text: P. falciparum used in this study were two well characterized clones, W2 and D6, as described in Oduola, A. M. et al., Plasmodium falciparum: cloning by single-erythrocyte micromanipulation and heterogeneity in vitro; Exp. Parasitol. 66, 86-95 (1988), the contents of which are incorporated herein by this reference. W2 is a clone of the Indochina I isolate and is resistant to chloroquine and pyrimethamine, but susceptible to mefloquine. D6 is a clone from the Sierra I/UNC isolate and is susceptible to chloroquine and pyrimethamine, but has reduced susceptibilities to mefloquine and halofantrine.
The susceptibility of P. falciparum to Syr-E was studied using a modified antimalarial drug susceptibility screen following the procedures published by Desjardins et al., Quantitative assessment of antimalarial activity in vitro by semiautomated microdilution technique (1979), with modifications developed by Milhous et al., In vitro strategies for circumventing antimalarial drug resistance, Prog. […]
Syr-E was dissolved directly in dimethylsulfoxide (DMSO) and diluted 400 fold with complete culture media and started at a highest concentration of 50,000 ng/ml. […] The filter mats were then counted in a scintillation counter and the data downloaded with custom, automated analysis software (developed at the Walter Reed Army Institute of Research). […]

For experiment [2], the system named is C. parvum. Put plainly: C. parvum development in BFTE cell culture at pH 6.3. As to conditions: BFTE cells, pH 6.3, day 2 post inoculation. It counts as cell-based, C. parvum (bovine isolate). As to the method: C. parvum (bovine isolate) oocysts used in this study were originally donated by the U.S. Department of Agriculture, Ames, Iowa. The oocysts were isolated from calf manure, preserved in 2.5% potassium dichromate at 4° C., and used within 3 months of purification. Oocysts were decontaminated by suspension in 20% (vol/vol) 1.05% sodium hypochlorite on ice for 20 minutes. Oocysts were then washed three times in Hanks' balanced salt solution ("HBSS") and once in RPMI 1640 (available from Sigma, St. Louis, Mo.). Release of sporozoites was achieved by incubating oocysts in an excystation solution consisting of 0.25% (wt/vol) trypsin (available from Sigma, St. Louis, Mo.) and 0.75% (wt/vol) taurodeoxycholic acid (available from Sigma) in HBSS. The resulting suspension was incubated at 37° C. for 45 minutes and microscopically observed to confirm sporozoite release. Sporozoites were completely separated from intact oocysts and oocyst walls by passage through sterile polycarbonate filters (3 micron pore size, available from Millipore Corp., Bedford, Mass.) twice prior to inoculation of bovine fallopian tube epithelial ("BFTE") cell monolayers.
Primary BFTE cell cultures were prepared from bovine fallopian tubes (FT). […]
The inhibitory effect of Syr-E on C. parvum development was monitored in BFTE cell culture at pH 6.3. […]

In brackets after ≈: the same amount, converted by molar mass. Where a SMILES comes first, the peptide text is derived from it. Bridges are numbered along the chain shown (N, C = ends). [ ]: non-standard residue; d: D form. The star is where a group is joined. Asp(3S-OH) = N[C@H](C(=O)O)[C@H](O)C(=O)O; Thr(4-Cl) = N[C@H](C(=O)O)[C@H](O)CCl; X1 = CCCCCCCCC[C@@H](O)CC(=O)*; dDab = NCC[C@@H](N)C(=O)O; Dab = NCC[C@H](N)C(=O)O; Dhb = C/C=C(\N)C(=O)O

In general, IC50 refers to the concentration that inhibits the measured activity by half. High values mean weaker potency, low ones greater potency.

Turning to `C/C=C1\NC(=O)[C@H](Cc2ccccc2)NC(=O)[C@H](CCCNC(=N)N)NC(=O)[C@H](CCN)NC(=O)[C@@H](CCN)NC(=O)[C@@H](CO)NC(=O)[C@@H](NC(=O)C[C@H](O)CCCCCCCCC)COC(=O)[C@H]([C@H](O)CCl)NC(=O)[C@H]([C@H](O)C(=O)O)NC1=O` [Syr-E, Syringomycin-E] (X1-S[dS][dDab][Dab]RF[Dhb][Asp(3S-OH)][Thr(4-Cl)]; ester 1-C), in experiment [1], the IC50 came out at 3.23 µg/mL (≈ 2.64 µM). For the same compound, the “infection percentage vs lower Syr-E concentrations (0.5 to 3.0 μg/ml)” value in experiment [2] (Syr-E 9.0 μg/ml) is on record as “further reduced the infection percentage significantly (P<0.01)”. Further, the “infection percentage vs non-treated controls” value in experiment [2] (Syr-E 0.5, 1.0, 3.0 and 9.0 μg/ml) was “significantly (at least P<0.01) reduced the infection percentage”.

Source of the values: patent US6310037A, “Method of controlling protozoan infections using syringomycin-family lipodepsipeptides” (Utah State University, priority 1999, dated 2001).
